Values of other authors as cited in US6562827B1, “Heterocyclically substituted amides used as calpain inhibitors” (Abbott Laboratories, priority 1998, dated 2003).

Tests used:
[1] = known calpain inhibitors
calpain [2] = conditions: result in words, from the literature
calpain [3] = conditions: known calpain inhibitors
[4] = tested on: tyrosine kinase pp60src cleaved by calpain; conditions: activated platelets; Oda et al. J. Biol. Chem. 1993

Q: With `CC(C)C[C@H](NC(=O)[C@H]1O[C@@H]1C(=O)O)C(=O)NCCCCN=C(N)N` [E 64] as the compound, how does the “crossing of cell membranes” value [1] read?
A: only cross the cell membranes with difficulty

Q: And the calpain inhibition (calpain [2])?
A: good calpain inhibitors

Q: And the action in cells (calpain [3])?
A: only a poor action in cells

Q: Which “cleavage of pp60src” value [4] does the source give for `CCCC[C@@H](C=O)NC(=O)[C@H](CC(C)C)NC(=O)OCc1ccccc1` [calpeptin] here?
A: can be prevented

Q: For `CC(=O)N[C@@H](CC(C)C)C(=O)N[C@@H](CC(C)C)C(=O)N[C@H](C=O)CCCNC(=N)N` [leupeptin], which “crossing of cell membranes” value [1] is on record?
A: only cross the cell membranes with difficulty

Q: What about the calpain inhibition (calpain [2]) of the same compound?
A: good calpain inhibitors

Q: And the action in cells (calpain [3])?
A: only a poor action in cells

Q: With Ph—CONH—CH(CH2Ph)—CO—COCOOCH3 as the compound, how does the calpain inhibition (calpain [2]) read?
A: only a weak calpain inhibitor
